US10952415B2, “Prostate cancer cell lines, gene signatures and uses thereof” (priority 2011, dated 2021)

B1: CCR5: printed CCR5, probably CCL5 (R&D System), the CCR5 ligand used as chemoattractant (protein, UniProt P13501 24-91, looked up)
C-C motif chemokine 5: SPYSSDTTPCCFAYIARPLPRAHIKEYFYTSGKCSNPAVVFVTRKNRQVCANPEKKWVREYINSLEMS

Assays:
PEC lines = test: Experimental metastasis assay: intracardiac injection of Luc2-Tomato-Red PEC lines, bioluminescence, X-ray and F-18-NaF imaging; assay type: in vivo, FVB mice
PEC-Src line = test: Three-dimensional (Matrigel) invasion assay; assay type: cell-based, murine; details: 10 ug/ml osteopontin or 15 ng/ml CCL5 as chemoattractant in upper chamber, three days
Description: The three-dimensional invasion assay was performed as previously reported. […] The transwell was incubated at 37° C. overnight to allow the collagen to solidify. 30,000 cells were then seeded on the bottom of the transwell membrane and allowed to attach. Serum-free growth medium was placed into the bottom chamber, while 10 ug/ml osteopontin (R&D System), or 15 ng/ml CCL5 (R&D System), or 10% FBS was used as a chemo attractant in the medium of the upper chamber. The cells were then chemo attracted across the filter through the collagen above for three days. Cells were fixed in 4% formaldehyde, permeabilized with 0.2% Triton-X in PBS and then stained with […] propidium iodide (PI) for 2 h. Fluorescence was analyzed by confocal z sections (one section every […]) at 10× magnification from the bottom of the filter using a Zeiss LSM 510 Meta inverted confocal microscope at the Kimmel Cancer Center Bioimaging Facilit.
For the comparison to tissue, the in vivo tumor gene expression in the oncogene transformed PEC was compared with the expression in vivo in the dorsolateral ventral prostate of mice with the same strain. […] Upregulation of the receptor ligands CCL2, CCL7, and CCL8 was observed (2- to 3-fold). CCL7, CCL8 and CCL5 are ligands for CCR5, CCL8 and CCL5 for CCR1 (FIG. 16H). […]

[1] = Maraviroc 8 mg/kg oral vs control, FVB mice, 2 weeks after intracardiac injection of PEC lines, N=8 per group

| Molecule | reduction of bony metastasis (lower limb bony mass) (PEC lines; [1]) [%] | reduction of total body metastatic burden (photon flux) (PEC lines; [1]) [%] | effect on metastasis (result in words) (PEC lines; daily oral CCR5 antagonist, bony / spinal osteolytic metastasis in mice) | reduction of spine metastasis (PEC lines; daily oral treatment, F-18-NaF imaging correlated with X-ray, FVB mice) [%] | Matrigel invasion of the PEC-Src line (result in words) (PEC-Src line) |
| --- | --- | --- | --- | --- | --- |
| Maraviroc | > 50 | > 50 | reduction in metastasis | > 90 |  |
| osteopontin [OPN] |  |  |  |  | enhanced PEC invasiveness into matrigel |
| B1 |  |  |  |  | enhanced PEC invasiveness into matrigel |
